Measurements from patent publication US20220339178A1, “COMPOSITIONS AND METHODS FOR COGNITIVE PROTECTION OF POLLINATORS AGAINST PESTICIDES” (priority 2019, published 2022).

What was measured:
[1] = system: Honeybees (Apis mellifera scutellata); experiment: Classical conditioning of the proboscis extension response (PER): learning, 24 h memory retention, latency; flavonoids vs imidacloprid; assay type: in vivo; details: for memory retention, proportion difference relative to Control bees (Adjusted Wald test): conditioned PER after 24 h; for latency of response during learning acquisition relative to Control bees / learning scores relative to Control bees: honey bees; for learning scores relative to Control bees: 8 trials, score 0-7, quercetin 6.6 mM or rutin 1 mM once a day for three days, imidacloprid 1.16 nM 20 μL 1.5 h before training
Description: Honeybees (Apis mellifera scutellata) were captured from established hives at the Apiary of the Pontificia Universidad Javeriana (Bogota, Colombia). Foragers were collected while leaving to forage between 8:00 am and 10:00 am (Matsumoto et al., J Neurosci Methods. 211(1):159-67. 2012). Bees were maintained in individual plastic chambers under laboratory conditions (photoperiod followed seasonal pattern; relative humidity: 63%; temperature: 18° C.). Food was provided once a day in a volume of 20 μL and varied in composition according to experimental treatments.
Control (2M sugar water): fed once a day (20 μL) for three consecutive days;
Quercetin (6.6 mM quercetin (Sigma-Aldrich: Q4951)-sucrose-water with DMSO 1% (Sigma-Aldrich: D8418): fed once a day for three days;
Rutin (1 mM rutin (Sigma-Aldrich R5143)-sucrose-water with DMSO 1%: fed once a day for three days;
Imidacloprid (1.16 nM Imidacloprid (Bayer)-sucrose-water: fed as a single dose (20 μL) 1.5 h before training;
Quercetin-Imidacloprid: bees received the quercetin treatment (see above) and were fed Imidacloprid 1.5 h before training; and
Rutin-Imidacloprid: bees received the rutin treatment (see above) and were fed Imidacloprid 1.5 h before training.
Bees were trained using classical conditioning of the proboscis extension response (PER), a broadly used method to study learning and memory in bees. Briefly, bees received a soft current of clean air for 15 seconds to allow bees to accommodate. Then a soft current of 1-hexanol (Sigma-Aldrich: 471402) was injected for 10 seconds. Six seconds after injection of 1-hexanol, one of the antennae was stimulated with sucrose water (50% w/w), which leads to the reflexive extension of the proboscis, and the bee was allowed to drink for 4 seconds. Thus, the reward and the stimulus overlapped for four seconds. This sequence, recognized as a training trial, was repeated eight times. Time was determined using a metronome (2 Hz). Memory retention was tested 24 hours after the eight training trials. […] 12 bees were trained each session. Training was conducted by an experimenter blind to treatment.
Learning was assessed from the total number of conditioned responses across the eight trials. Thus, each bee received a learning score between 0-7 (by definition, bees cannot show a learned response at the first trial). After 24 h, memory retention was assessed as the response to the presentation of 1-hexanol without a sucrose reward. Latency of response was quantified as the time between the onset of 1-hexanol stimulation and the onset of a response that led to a full extension of proboscis. Only bees being responsive to sucrose water across all training trials and the memory retention test were considered for analyses. Learning scores were compared across treatments using a Mann-Whitney test as data were not normally distributed (Shapiro-Wilk W test for the hypothesis that the data is from a Normal distribution: P<0.05 for all treatments). Comparisons of the learning score of bees across all treatments relative to Control bees were conducted using the Steel method adjusted as one or two-tailed tests. Additional post hoc comparisons were performed between Imid and Quer+Imid bees and between Imid and Rut+Imid bees. Memory retention was compared across groups using an overall Chi-Square test and independent tests for planned comparisons were performed using adjusted Wald tests for proportions. In all cases error due to multiple comparisons was controlled using the False Discovery Rate one stage method and adjusted p-values (q-values) are presented (Benjamini & Hochberg, Journal of the Royal Statistical Society. Series B (Methodological), 57(1):289-300. 1995; Pike, N., Methods in Ecology and Evolution, 2(3):278-282. 2011). All analyses were conducted using JMP v.14.0 (SAS Institute Inc). […]

[2] = system: Honey bee foragers (Apis mellifera scutellata); experiment: Sucrose responsiveness (sensory sensitivity) of honey bees: flavonoids vs deltamethrin; assay type: in vivo; details: honey bees; rutin 1 μM, kaempferol 131.7 μM or both for one day; 17.81 μM deltamethrin next day; pooled score
Description: Honey bee foragers (Apis mellifera scutellata) were captured from established hives at the Apiary of the Universidad del Rosario (Bogota, Colombia) between 08:00 h and 10:00 h. Bees were ice-anesthetized and harnessed in plastic tubes and maintained under laboratory conditions for the duration of the experiment (three days).
On the first day, bees were randomly allocated to one of four treatments administered as two doses (morning: 20 μL; afternoon:10 μL): i) Control (1M sucrose solution), ii) Rutin 1 μM (Sigma-Aldrich R5143), iii) Kaempferol 131.7 μM (Sigma-Aldrich K0133), iv) Rutin-Kaempferol composition (final concentration of […] rutin and 131.7 μM kaempferol). All solutions were diluted in 1M sucrose solution to the concentrations described above. The next day, bees from each group were randomly assigned to one of two treatments: […] of 1M sucrose solution or 17.81 μM deltamethrin (Dinastia Bayer). Thus, bees belonged to one of eight treatments: i) Sucrose water (Control), ii) Rutin (Rut), iii) Kaempferol (Kaemp), iv) Kaempferol+Rutin (Kaemp+Rut), v) Deltamethrin (Delta), vi) Rutin+Deltamethrin (Rut+Delta), vii) Kaempferol+Deltamethrin (Kaemp+Delta), viii) Kaempferol+Rutin+Deltamethrin ((Kaemp+Rut)+Delta). All solutions were diluted in 1M sugar water to the concentrations described above.
Sensory sensitivity was evaluated using responsiveness to sucrose, a proxy of resource exploitation by foragers. On the second day, bees of the eight treatments described above were tested five times for their response threshold (0 h, 1 h, 2 h, 3 h and 4 h). The first measure (0 h) was done prior to pesticide administration. Bees were tested with an ascending sucrose concentration of 0.1, 0.3, 1, 3, 10 and 30% (w/w). Between each concentration, the bees were presented with pure water as a control for potential sensitization or habituation (Pankiw et al., Behav Ecol Sociobiol (2000) 47:265-267). The inter-trial time between the presentation of each sucrose concentration was at least 4 minutes. For each presentation, the reflexive extension of the proboscis (tongue) of the bee, after antennal stimulation with the solution was recorded. After the last measure (4 h), bees were fed with 10 μL of 1M sucrose solution and maintained until the next day for a final test (24 hours after pesticide administration).
For each bee, a responsiveness score was determined (0-7) 0 h, 1 h, 2 h, 3 h, 4 h and 24 h, and a pooled scored (0-42). Normal distribution of the scores was tested using Shapiro-Wilk W Test for the null hypothesis that data is from a Normal distribution. […] Thus, non-parametric tests were used for comparisons across treatments and for multiple comparisons. Overall changes of responses across different concentrations were evaluated using repeated-measured MANOVA. Error associated with multiple comparisons was controlled using the Two-stage sharpened False Discovery Rate, and corrected p-values (q-values) are presented. Data were explored for outliers using a single run of Robust Fit outliers test. All analyses were conducted using JMP v.14 (SAS Institute Inc.)

SMILES | odds of remembering for Control bees relative to Imid bees ([1]; 24 h retention) [times] | probability of exhibiting a conditioned PER after 24 h relative to Control bees ([1]; 24 h retention) | memory retention, proportion difference relative to Control bees (Adjusted Wald test) [1] | latency of response during learning acquisition relative to Control bees [1] | learning scores relative to Control bees [1] | bees exhibiting a conditioned PER after 24 h ([1]; retention test 24 h after training) [%] | sensitivity (sucrose responsiveness, total PER score) relative to Control bees [2] | learning scores relative to bees in the Imid group ([1]; honey bees prophylactically fed flavonoid for three days, then imidacloprid 1.5 h before training)
O=[N+]([O-])NC1=NCCN1Cc1ccc(Cl)nc1 [Imidacloprid] | 9.1 | significantly lower | 0.49 | not significantly different from Control | significantly lower | 20 |  | 
C[C@@H]1O[C@@H](OC[C@H]2O[C@@H](Oc3c(-c4ccc(O)c(O)c4)oc4cc(O)cc(O)c4c3=O)[C@H](O)[C@@H](O)[C@@H]2O)[C@H](O)[C@H](O)[C@H]1O [Rutin] |  |  | −0.14 | not significantly different from Control | significantly higher learning scores |  | not significantly affected | significantly higher learning scores
